Experimental data as given in US6639058B2, “Method of dissolving preformed β-amyloid peptide fibrils in vitro by poly-lysine” (priority 2001, dated 2003).

Experiments:
[1] = target: T1, preformed βA25-35 fibrils (Homo sapiens, UniProt P05067); experiment: Electron microscopy analysis of the ability to dissolve preformed βA fibrils in vitro (βA25-35); type: biochemical; details: for ability to dissolve preformed βA25-35 fibrils: 10 μl tested compound mixed with 10 μl preformed fibrils, negative-staining electron microscopy immediately performed, Poly-L-Lysine 25 mg/ml, Polyethylene glycol 10 mg/ml, L-Lysine 1 M
T1 construct: 0.5 mg/ml for βA25-35 prepared in water or in PBS
Method: (§1) Aliquots of βA at a concentration of 1.5 mg/ml for both βA1-40 and βA1-42 and 0.5 mg/ml for βA25-35 prepared in water or in PBS, were incubated for 5 days at 37° C. At the end of the incubation period, 10 μl of βA solution were mixed with 10 μl of water for negative-staining electron microscopy analysis.
(§2) All compounds used to test the ability to dissolve preformed βA fibrils in vitro: Poly-L-Lysine, Polyethylene glycol and L-Lysine, were prepared in water and at a concentration of 25 mg/ml, 10 mg/ml and 1 M respectively. Then, 10 μl of tested compound were mixed with 10 μl of water for negative-staining electron microscopy analysis.
(§3) In order to evaluate the ability of compounds to dissolve preformed βA fibrils in vitro, 10 μl of tested compound were mixed with 10 μl of preformed βA fibrils and the negative-staining electron microscopy analysis was immediately performed.
(§4) Samples of tested compound, βA with or without tested compound were placed on carbon formar-coated 200-mesh nickel grids. The grids were stained for 5 minutes with 1% phosphotungstic acid and visualized on a Philips EM 401 electron microscope at 80 kV.

[2] = target: T2, preformed βA1-40 fibrils (Homo sapiens, UniProt P05067); experiment: Electron microscopy analysis of the ability to dissolve preformed βA fibrils in vitro (βA1-40); type: biochemical; details: data not shown
T2 construct: 1.5 mg/ml for both βA1-40 and βA1-42
Method: as §1, §2, §3, §4

T2 sequence (P05067 672-711): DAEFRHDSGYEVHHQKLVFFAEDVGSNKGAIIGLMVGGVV

| Compound | ability to dissolve preformed βA25-35 fibrils [1] | speed of efficiency in dissolving preformed βA fibrils ([1]; in vitro, electron microscopy immediately after mixing) | potential to dissolve preformed βA1-40 fibrils [2] |
| --- | --- | --- | --- |
| Poly-L-Lysine, hydrobomide | completely dissolved | instantaneous | also observed |
| Cl.NCCCC[C@H](N)C(=O)O [L-Lysine, L-Lysine, monohydrochloride, reference compound] | not effective |  |  |
